Results as given in ChEMBL document CHEMBL1156576, “Determination of log D via automated microfluidic liquid-liquid extraction” (J Med Chem, 2008).

Key:
[1] = physchem; conditions: buffer, pH 7.4
[2] = physchem; conditions: buffer, pH 7.4; remark: listed apart in the source
[3] = buffer, pH 7.4
[4] = buffer, pH 7.4; remark: listed apart in the source

Compound | logD [1] | logD [2] | logD [3] | logD [4]
CC(C)N(CC[C@](C(N)=O)(c1ccccc1)c1ccccn1)C(C)C [(S)-DISOPYRAMIDE] | 0.39 | 0.52 | – | –
CC(=O)Nc1ccc(O)cc1 [ACETAMINOPHEN] | 0.27 | 0.33 | – | –
CN(C)CCC(c1ccc(Cl)cc1)c1ccccn1 (stereo not drawn) [CHLORPHENIRAMINE] | – | – | 0.26 | 0.28
NS(=O)(=O)c1cc(C2(O)NC(=O)c3ccccc32)ccc1Cl (stereo not drawn) [CHLORTHALIDONE] | 0.85 | 0.94 | – | –
CN/C(=N/CCSCc1nc[nH]c1C)NC#N [CIMETIDINE] | 0.29 | 0.34 | – | –
CC(=O)OCC(=O)[C@@]1(O)CC[C@H]2[C@@H]3CCC4=CC(=O)CC[C@]4(C)[C@H]3[C@@H](O)C[C@@]21C [HYDROCORTISONE ACETATE] | 2.11 | 2.21 | – | –
CCN(CC)CCNC(=O)c1ccc(N)cc1 [PROCAINAMIDE] | -0.94 | -0.89 | – | –
CNC(=C[N+](=O)[O-])NCCSCc1ccc(CN(C)C)o1 [RANITIDINE] | -0.99 | -0.91 | – | –
CCN(CC)CCNC(=O)c1cc(S(C)(=O)=O)ccc1OC [TIAPRIDE] | -0.9 | -0.85 | – | –
